What was measured:
[1] = system: primary cultured guinea-pig urinary bladder (GPB) cells; test: Membrane hyperpolarization (MHP) assay, DiBAC(4)3 / FLIPR; format: cell-based; conditions: Cavia porcellus; for EC50: concentration that elicits 50% of the maximal response for the test sample; for Emax: maximal steady-state hyperpolarization, normalized to response with 10 μM P1075 (100%)
How it was run: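 Primary smooth-muscle cells from male guinea-pig bladder, grown to confluence, loaded 30 min at 37° C with 5 μM DiBAC(4)3 in HEPES buffer pH 7.4. Fluorescence drop on FLIPR followed 25 min after compound; steady-state hyperpolarization normalized to 10 μM P1075 (100%), EC50 from four-parameter fit of five concentrations.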

| EC50 [1] [nM] | melting point [°C] | Structure (SMILES) | Emax [1] [%] |
| --- | --- | --- | --- |
| 1200 | 200 to 203 | C=CCC(C)(C)C(NC(=O)c1ccc(Cl)cc1)NC(=N[N+](=O)[O-])Nc1cccnc1 (stereo not drawn) [Example 127, 4-chloro-N-(1-{[(nitroimino)(3-pyridinylamino)methyl]amino}-2,2-dimethyl-4-pentenyl)benzamide] | 65 |
| 700 | 192 to 193 | Cc1ccc(NC(=S)NC(NC(=O)c2ccc(C)cc2)C(F)(F)F)cc1 (stereo not drawn) [Example 10, 4-methyl-N-{2,2,2-trifluoro-1-[(4-toluidinocarbothioyl)amino]ethyl}benzamide] | 65 |
| 450 | 199 to 200 | Cc1ccc(C(=O)NC(NC(=S)Nc2ccc(Cl)nc2)C(F)(F)F)cc1 (stereo not drawn) [Example 7, N-[1-({[(6-chloro-3-pyridinyl)amino]carbothioyl}amino)-2,2,2-trifluoroethyl]-4-methylbenzamide] | 101 |
| 320 | 167 to 170 | CC(C)(C)C(NC(=O)c1ccc(Cl)cc1)NC(=NC#N)Nc1cccc(F)c1 (stereo not drawn) [Example 70, 4-chloro-N-(1-{[(cyanoimino)(3-fluoroanilino)methyl]amino}-2,2-dimethylpropyl)benzamide] | 74 |
| 1080 | 179 to 181 | Cc1ccc(C(=O)NC(NC(=S)Nc2cccc(C(F)(F)F)c2F)C(F)(F)F)cc1 (stereo not drawn) [Example 5, 4-methyl-N-[2,2,2-trifluoro-1-({[2-fluoro-3-(trifluoromethyl)anilino]carbothioyl}amino)ethyl]benzamide] | 106 |
| 400 | 136 to 138 | N#CN=C(Nc1cccnc1)NC(NC(=O)c1ccc(Cl)cc1)C(F)(F)F (stereo not drawn) [Example 64, 4-chloro-N-(1-{[(cyanoimino)(3-pyridinylamino)methyl]amino}-2,2,2-trifluoroethyl)benzamide] | 89 |
| 310 | 185 to 187 | CCC(CC)C(NC(=O)c1ccc(Cl)cc1)NC(=NC#N)Nc1cccnc1 (stereo not drawn) [Example 59, 4-chloro-N-(1-{[(cyanoimino)(3-pyridinylamino)methyl]amino}-2-ethylbutyl)benzamide] | 73 |
| 140 | 166 to 168 | O=C(Nc1cccnc1)NC(NC(=O)c1ccc(Cl)cc1)C(Cl)(Cl)Cl (stereo not drawn) [Example 41, 4-chloro-N-(2,2,2-trichloro-1-{[(3-pyridinylamino)carbonyl]amino}ethyl)benzamide] | 98 |
| 530 | 201 to 203 | CC(C)(C1CCCCC1)C(NC(=O)c1ccc(Cl)cc1)NC(=N[N+](=O)[O-])Nc1cccnc1 (stereo not drawn) [Example 130, 4-chloro-N-(1-{[(nitroimino)(3-pyridinylamino)methyl]amino}-2-cyclohexyl-2-methylpropyl)benzamide] | 147 |
| 370 | 197 to 198 | Cc1ccc(C(=O)NC(NC(=S)Nc2cccc(C)c2)C(F)(F)F)cc1 (stereo not drawn) [Example 16, 4-methyl-N-{2,2,2-trifluoro-1-[(3-toluidinocarbothioyl)amino]ethyl}benzamide] | 65 |
| ≥ 10000 | 206 to 208 | COc1cccc(NC(=S)NC(NC(=O)c2ccc(C)cc2)C(F)(F)F)c1 (stereo not drawn) [Example 12, 4-methyl-N-(2,2,2-trifluoro-1-{[(3-methoxyanilino)carbothioyl]amino}ethyl)benzamide] | 4 |
| 6000 | 181 to 183 | CCC(NC(=O)c1ccc(Cl)cc1)NC(=NC#N)Nc1cccnc1 (stereo not drawn) [Example 84, 4-chloro-N-(1-{[(cyanoimino)(3-pyridinylamino)methyl]amino}propyl)benzamide] | 69 |
| 990 | 186 to 187 | Cc1ccccc1C(=O)NC(NC(=S)Nc1cccnc1)C(C)(C)C (stereo not drawn) [Example 26, N-(2,2-dimethyl-1-{[(3-pyridinylamino)carbothioyl]amino}propyl)-2-methylbenzamide] | 80 |
| 120 | 217 to 218 | CC1=C(CC(NC(=O)c2ccc(Cl)cc2)NC(=N[N+](=O)[O-])Nc2cccnc2)C(C)(C)CCC1 (stereo not drawn) [Example 129, 4-chloro-N-[1-{[(nitroimino)(3-pyridinylamino)methyl]amino}-2-(2,6,6-trimethyl-1-cyclohexen-1-yl)ethyl]benzamide] | 132 |
| 840 | 202 to 203 | N#CN=C(Nc1cccnc1)NC(CC12CC3CC(CC(C3)C1)C2)NC(=O)c1ccc(Cl)cc1 (stereo not drawn) [Example 95, N-(2-(1-adamantyl)-1-{[(cyanoimino)(3-pyridinylamino)methyl]amino}ethyl)-4-chlorobenzamide] | 97 |
| 180 | 209 to 210 | N#CN=C(Nc1cccnc1)NC(NC(=O)c1ccc(Cl)cc1)C12CC3CC(CC(C3)C1)C2 (stereo not drawn) [Example 100, N-(1-adamantyl{[(cyanoimino)(3-pyridinylamino)methyl]amino}methyl)-4-chlorobenzamide] | 87 |
| > 10000 | 196 to 197 | N#CN=C(NCNC(=O)c1ccc(Cl)cc1)Nc1cccnc1 [Example 85, 4-chloro-N-({[(cyanoimino)(3-pyridinylamino)methyl]amino}methyl)benzamide] | < 20 |
| 1550 | 193 to 194 | COc1ccc(NC(=S)NC(NC(=O)c2ccc(C)cc2)C(F)(F)F)cc1 (stereo not drawn) [Example 6, 4-methyl-N-(2,2,2-trifluoro-1-{[(4-methoxyanilino)carbothioyl]amino}ethyl)benzamide] | 107 |
| 60 | 147 to 149 | O=C(NC(NC(=S)Nc1cccnc1)C(F)(F)F)c1ccc(Cl)cc1 (stereo not drawn) [Example 19, 4-chloro-N-(2,2,2-trifluoro-1-{[(3-pyridinylamino)carbothioyl]amino}ethyl)benzamide] | 117 |
| > 10000 | 182 to 183 | CC(C)(Cc1ccccc1)C(NC(=O)c1ccc(Cl)cc1)NC(=NC#N)Nc1cccnc1 (stereo not drawn) [Example 102, 4-chloro-N-(1-{[(cyanoimino)(3-pyridinylamino)methyl]amino}-2,2-dimethyl-3-phenylpropyl)benzamide] | < 20 |
| 53 | 180 to 181 | CC(C)(C)C(NC(=O)c1ccc(Br)cc1)NC(=NC#N)Nc1cccnc1 (stereo not drawn) [Example 105, 4-bromo-N-(1-{[(cyanoimino)(3-pyridinylamino)methyl]amino}-2,2-dimethylpropyl)benzamide] | 106 |
| 2140 | 230 to 233 | Cc1ccc(C(=O)NC(NC(=O)Nc2ccccc2)C(Cl)(Cl)Cl)cc1 (stereo not drawn) [Example 42, N-{1-[(anilinocarbonyl)amino]-2,2,2-trichloroethyl}-4-methylbenzamide] | 66 |
| 330 | 181 to 183 | CC(C)(C)CC(NC(=O)c1ccc(Cl)cc1)NC(=NC#N)Nc1cccnc1 (stereo not drawn) [Example 62, 4-chloro-N-(1-{[(cyanoimino)(3-pyridinylamino)methyl]amino}-3,3-dimethylbutyl)benzamide] | 81 |
| 1000 | 172 to 175 | Cc1ccc(C(=O)NC(C)NC(=S)Nc2cccc([N+](=O)[O-])c2)cc1 (stereo not drawn) [Example 29, 4-methyl-N-(1-{[(3-nitroanilino)carbothioyl]amino}ethyl)benzamide] | 28 |
| 25500 | 102 to 104 | CC[C@H](C)[C@H](NC(=O)c1ccc(C)cc1)NC(=S)Nc1cccnc1 [Example 36, 4-methyl-N-((1R,2S)-2-methyl-1-{[(3-pyridinylamino)carbothioyl]amino}butyl)benzamide] | 50 |
| 1000 | 193 to 194 | CC(C)CC(NC(=O)c1ccc(Cl)cc1)NC(=NC#N)Nc1cccnc1 (stereo not drawn) [Example 60, 4-chloro-N-(1-{[(cyanoimino)(3-pyridinylamino)methyl]amino}-3-methylbutyl)benzamide] | 62 |
| 140 | 181 to 183 | CC(C)(C1CCCCC1)C(NC(=O)c1ccc(Cl)cc1)NC(=NC#N)Nc1cccnc1 (stereo not drawn) [Example 93, 4-chloro-N-(1-{[(cyanoimino)(3-pyridinylamino)methyl]amino}-2-cyclohexyl-2-methylpropyl)benzamide] | 75 |
| 1600 | 101 to 103 | CN(C)CC(C)(C)C(NC(=O)c1ccc(Cl)cc1)NC(=NC#N)Nc1cccnc1 (stereo not drawn) [Example 97, 4-chloro-N-[1-{[(cyanoimino)(3-pyridinylamino)methyl]amino}-3-(dimethylamino)-2,2-dimethylpropyl]benzamide] | 74 |
| 4400 | 182 to 184 | CC(C)C(NC(=O)c1ccc(Cl)cc1)NC(=NC#N)Nc1cccnc1 (stereo not drawn) [Example 63, 4-chloro-N-(1-{[(cyanoimino)(3-pyridinylamino)methyl]amino}-2-methylpropyl)benzamide] | 73 |
